In patent publication EP0624368A2, “Use of a composition for stimulating the synthesis of glutathione in the manufacture of a medicament for the treatment of acquired immune deficiency syndrome” (priority 1993, dated 1994):

Legend:
Type in all cases: cell-based
HIV-1 (strain IIIB) [1] = assay: MTT assay of protection against acute HIV infection in MT-2 cells; conditions: 100 IU/well HIV; for OD readings at 540 nm (MTT assay): MT-2, Day 6 cultures
Source text: (§1) Three cell culture systems were used in this study: H-9 cells; MT-2 cells; and normal human peripheral blood mononuclear cells (PBMC). H-9 cells were obtained from Advanced Biotechnology Inc. (ABI). MT-2 cells were obtained from Dr. J. Armstrong of the University of Pittsburgh. MT-2 cells are HTLV-I transformed human T lymphocytes and continuously produce HTLV-I virions. PBMC were obtained from healthy donors, purified by Ficol-Hypaque, and stimulated with PHA mitogen before being used in the efficacy studies. The initial stock of HIV-1 (strain IIIB) used in this study was obtained from ABI and the working stocks were produced.
(§2) Cells were collected, put into tissue culture plates and incubated with different concentrations of drugs in RPMI 1640 tissue culture medium for 20 minutes prior to HIV challenge. Infection was carried out by inoculating 20-100 HIV infectious units (IU)/well inoculum without removing the drugs. The untreated cells exposed to HIV challenge served as positive controls. The normal untreated uninfected cells served as negative controls.
(§3) Both the MTT assay and HIV p24 ELISA were used for evaluation of drug efficacies with MT-2 cells. The MTT assay is based upon the metabolic reduction of the MTT tetrazolium bromide dye in live cells. The OD readings (at 540 nm) obtained from the MTT assay are inversely correlated to the levels of cell mortality due to HIV infection or the cytotoxic effect of drugs. […] The HIV p24 antigen assay measures the level of HIV antigen present in the sample (i.e., culture supernatant).
(§4) When evaluating the efficacies of drugs in H-9 cells and PBMC systems, only HIV p24 assays were used. To calculate the ED₅₀ values, a second order linear regression was applied on the logarithm of the tested doses of different drugs against the OD readings obtained from either MTT assays or HIV p24 assays.

HIV-1 (strain IIIB) [2] = assay: HIV p24 antigen assay in MT-2 cells (single and combination treatment); conditions: 20 IU/well HIV; for OD readings at 450 nm (HIV p24 antigen): MT-2
Source text: as §1, §2, §3, §4
(§5) Cells were collected, put into tissue culture plates and incubated with different combinations of drugs for 20 minutes prior to HIV infection in the combined treatment studies. Infection was carried out by inoculating 20-100 HIV IU/well inoculum without removing the drugs. The inocula were the same as the ones used in the single drug treatment to obtain the ED₅₀ values. Both MTT assays and HIV p24 antigen assays were used in evaluation of drug effects in MT-2 cells but only HIV p24 antigen assays were used for H-9 cells or PBMC.
(§6) Therefore, if the CI is less than 1, it indicates synergism among the tested drugs. Similarly, if the CI is equal to 1, the effects are additive, while a CI value greater than 1 is indicative of an antagonistic effect.

HIV-1 (strain IIIB) [3] = assay: HIV p24 antigen assay in H-9 cells (single and combination treatment); conditions: 80 IU/well HIV; for OD readings at 450 nm (HIV p24 antigen): H-9
Source text: as §1, §2, §4, §5, §6

HIV-1 (strain IIIB) [4] = assay: HIV p24 antigen assay in PBMC (single and combination treatment); conditions: 50 IU/well HIV
Source text: as §1, §2, §4, §5, §6

O=c1[nH]cnc2c1ncn2[C@H]1CC[C@@H](CO)O1 [ddI]
OD readings at 540 nm (MTT assay) (HIV-1 (strain IIIB) [1]; 0.25 μM): 0.551 | OD readings at 540 nm (MTT assay) (HIV-1 (strain IIIB) [1]; 1 μM): 0.603 | OD readings at 540 nm (MTT assay) (HIV-1 (strain IIIB) [1]; 4 μM): 0.561 | OD readings at 540 nm (MTT assay) (HIV-1 (strain IIIB) [1]; 16 μM): 0.880 | OD readings at 540 nm (MTT assay) (HIV-1 (strain IIIB) [1]; 64 μM): 1.135 | Calculated single treatment ED50 (HIV-1 (strain IIIB) [1]; MT-2 cells, MTT assay): 2778 nM | OD readings at 450 nm (HIV p24 antigen) (HIV-1 (strain IIIB) [2]; 0.25 μM): 3.351 | OD readings at 450 nm (HIV p24 antigen) (HIV-1 (strain IIIB) [2]; 1 μM): 3.025 | OD readings at 450 nm (HIV p24 antigen) (HIV-1 (strain IIIB) [2]; 4 μM): 0.710 | OD readings at 450 nm (HIV p24 antigen) (HIV-1 (strain IIIB) [2]; 16 μM): 1.167 | OD readings at 450 nm (HIV p24 antigen) (HIV-1 (strain IIIB) [2]; 64 μM): 1.131 | Calculated single treatment ED50 (HIV-1 (strain IIIB) [2]; MT-2 cells, p24 assay): 4069 nM | OD readings at 450 nm (HIV p24 antigen) (HIV-1 (strain IIIB) [3]; 0.25 μM): 3.984 | OD readings at 450 nm (HIV p24 antigen) (HIV-1 (strain IIIB) [3]; 1 μM): 1.542 | OD readings at 450 nm (HIV p24 antigen) (HIV-1 (strain IIIB) [3]; 4 μM): 0.772 | OD readings at 450 nm (HIV p24 antigen) (HIV-1 (strain IIIB) [3]; 16 μM): 0.716 | OD readings at 450 nm (HIV p24 antigen) (HIV-1 (strain IIIB) [3]; 64 μM): 0.329 | Calculated single treatment ED50 (HIV-1 (strain IIIB) [3]; H-9 cells, p24 assay): 2424 nM | OD readings at 450 nm (HIV p24 antigen) (HIV-1 (strain IIIB) [4]; 0.25 μM): 2.730 | OD readings at 450 nm (HIV p24 antigen) (HIV-1 (strain IIIB) [4]; 1 μM): 2.658 | OD readings at 450 nm (HIV p24 antigen) (HIV-1 (strain IIIB) [4]; 4 μM): 0.672 | OD readings at 450 nm (HIV p24 antigen) (HIV-1 (strain IIIB) [4]; 16 μM): 0.212 | OD readings at 450 nm (HIV p24 antigen) (HIV-1 (strain IIIB) [4]; 64 μM): 0.098
